Measured values published in publication PMC10484922, “Discovery of a selective and biologically active low-molecular weight antagonist of human interleukin-1β” (Nature Communications, 2023).
“And” between values parts separate entries of the source, which are not always exact repeats. Equal entries are not always repeated. Where two headings read alike, the source gives them in different places.

Columns and labels:
IL-1β = IL-1β (Homo sapiens, UniProt P01584); assay: protein-observed 1H-13C-HMQC NMR binding (I/Io of Leu60 Cδ1H3); parameters: Mature hIL-1β was expressed in Escherichia coli; made in house; host or cells: Escherichia coli BL21 (DE3), pET17b; details: hIL-1β 50 µM, 500 µM compound
IL-1β, sequence (P01584 117-269): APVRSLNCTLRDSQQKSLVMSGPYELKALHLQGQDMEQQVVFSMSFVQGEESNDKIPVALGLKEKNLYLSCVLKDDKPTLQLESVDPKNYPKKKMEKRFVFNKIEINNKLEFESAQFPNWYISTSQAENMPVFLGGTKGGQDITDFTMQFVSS

[1] = system: normal human dermal fibroblasts stimulated with hIL-1β; assay: Human fibroblast IL-6 release assay, hIL-1β stimulated; assay type: cell-based; parameters: IL-6, average / inhibition, replicates of EXP1, EXP2, EXP3 / inhibition, Mean / IL-1beta (mean, SD): mean readout (IL-6 release): unit not given here; details: for inhibition, Mean / inhibition, replicates of EXP1, EXP2, EXP3: Figure 3b; for Mean OD (OD 450nm) / IL-1beta (mean, SD): mean readout (IL-6 release): Figure 3c; for Mean OD (OD 450nm): compound 500 nM; for IL-1beta (mean, SD): mean readout (IL-6 release): compound @ 50uM
Procedure: We used HEK-Blue™ IL-1β cells that respond specifically to IL-1 (# hkb-il1b, InvivoGen). These cells can detect IL-1α and IL-1β, as these cytokines bind to the same receptor, IL-1R1. They express a Seap reporter gene under the control of the IFN-β minimal promoter fused to five NF-kappaB and five AP-1 binding sites. Thirty microliters (300,000 cells/ml) per well of a 384-well plate were plated overnight. Cells were then stimulated with graded concentrations of cytokines (hIL-1α or hIL-1β) in the absence or presence of canakinumab (Ilaris®, ILARI LYVI 150MG 22GLW.012, batch U003 0409)[22], anakinra (Kineret®, 100 mg/0.67 ml injectable solution, Sobi)[23], or compound (S)-2 (compounds were pre-mixed for 1 h with the cytokine prior to addition to cells) and further incubated overnight before assessment of Seap activity.
Normal human dermal fibroblasts (NHDF) from Clonetics^TM (LONZA, Cat # CC-2509 (NHDF-Neo), Lot # 0000234242, used at passage ≤14) were seeded at a density of 5000 cells/well in 100 μL of culture medium using 96-well plates (flat bottom, TCT). Treatment with cytokines/compounds was performed as described above. Cells were incubated for another 6 h and were subsequently spun down (320g/3 min). IL-6 was measured in the supernatant by ELISA (BioLegend, # 430503) or HTRF (Cisbio, #62HIL06PEH).

IL-1α = target: T1, IL-1α (Homo sapiens, UniProt P01583); assay: TR-FRET IL-1α/hIL-1R1 receptor displacement assay; assay type: biochemical; parameters: TR-FRET raw data: scale not given here
T1 sequence (P01583 113-271): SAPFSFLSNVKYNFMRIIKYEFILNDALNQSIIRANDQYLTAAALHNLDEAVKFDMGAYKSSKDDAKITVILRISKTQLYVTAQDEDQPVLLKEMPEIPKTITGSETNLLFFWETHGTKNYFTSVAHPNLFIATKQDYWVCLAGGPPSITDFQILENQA
How it was run: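 Competitive TR-FRET displacement: after 1 h at room temperature with test compound, Alexa 647-labeled hIL-1R1 (1–332; 50 nM final) and anti-His-Europium (1 nM final) added, further 1 h at room temperature. Emission read at 620/665 nm (excitation 320 nm); triplicates, IC50 from Hill-equation fit.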

[2] = (S)-2 concentration 0.05 (unit not given)
[3] = (S)-2 concentration 0.4 (unit not given)
[4] = (S)-2 concentration 1 (unit not given)
[5] = (S)-2 concentration 4 (unit not given)
[6] = (S)-2 concentration 11 (unit not given)
[7] = (S)-2 concentration 33 (unit not given)
[8] = (S)-2 concentration 100 (unit not given)
[9] = IL-1alpha, 0.01 uM, per experiment
[10] = IL-1alpha, 0.1 uM, per experiment
[11] = IL-1alpha, 0.2 uM, per experiment
[12] = IL-1alpha, 2 uM, per experiment
[13] = IL-1alpha, 63 uM, per experiment
[14] = IL-1alpha, 200 uM, per experiment

I/Io (ratio of peak intensities of Leu60 Cδ1H3 in 1H-13C-HMQC spectra in presence and absence of ligand) (IL-1β): <0.1
inhibition of the IL-1R1/IL-1α interaction (IL-1α): did not observe inhibition of IL-1α
TR-FRET calculated % inhibition (IL-1α; [9]): 3%
TR-FRET raw data (IL-1α; [9]): 96 and 97
inhibition at 0.01 µM (IL-1α; IL-1alpha, 0.01 uM, per experiment, read-out: TR-FRET calculated % inhibition): 4%
TR-FRET raw data (IL-1α; IL-1alpha, 0.02 uM, per experiment): 96
inhibition at 0.02 µM (IL-1α; IL-1alpha, 0.02 uM, per experiment, read-out: TR-FRET calculated % inhibition): 5%
TR-FRET calculated % inhibition (IL-1α; [10]): 2%
TR-FRET raw data (IL-1α; [10]): 96 and 98
inhibition at 0.1 µM (IL-1α; IL-1alpha, 0.1 uM, per experiment, read-out: TR-FRET calculated % inhibition): 4%
TR-FRET calculated % inhibition (IL-1α; [11]): 3%
TR-FRET raw data (IL-1α; [11]): 95 and 97
inhibition at 0.2 µM (IL-1α; IL-1alpha, 0.2 uM, per experiment, read-out: TR-FRET calculated % inhibition): 6%
TR-FRET raw data (IL-1α; IL-1alpha, 0.6 uM, per experiment): 99 and 89
TR-FRET calculated % inhibition (IL-1α; [12]): 2% and 11%
TR-FRET raw data (IL-1α; [12]): 98 and 90
TR-FRET raw data (IL-1α; IL-1alpha, 6 uM, per experiment): 87 and 97
TR-FRET raw data (IL-1α; IL-1alpha, 20 uM, per experiment): 87 and 99
TR-FRET calculated % inhibition (IL-1α; [13]): 8% and 2%
TR-FRET raw data (IL-1α; [13]): 93 and 98
TR-FRET calculated % inhibition (IL-1α; [14]): 7% and 1%
TR-FRET raw data (IL-1α; [14]): 94 and 99
IC50 (IL-1α; Il1a, read-out: TR-FRET IC50, individual experiments): > 200 µM
IC50 (IL-1α; read-out: TR-FRET IL-1α IC50): > 200 µM
Structure (SMILES): Cc1ccc2c(c1)NC(=O)[C@@]2(c1cn[nH]c1)c1cc(-c2ccc(C(=O)O)cc2C(=O)O)ccc1O [Compound (S)-2]
block of hIL-1β driven IL-6 release [1]: could inhibit the response to hIL-1β
inhibition, Mean [1, 2]: 11.8111
inhibition, replicates of EXP1, EXP2, EXP3 [1, 2]: 1.099 and 7.654 and 32.9874 and 11.239 and 6.325 and 15.536 and -5.489 and 15.493 and 21.4551
inhibition, replicates of EXP1, EXP2, EXP3 ([1]; (S)-2 concentration 0.1 (unit not given)): 18.345 and 33.8012 and 24.896 and 0.607 and 18.6036 and 23.695 and -10.879 and 23.6096
inhibition, Mean [1, 3]: 16.1795
inhibition, replicates of EXP1, EXP2, EXP3 [1, 3]: 6.922 and -13.568 and 28.7773 and 15.933 and -2.853 and 20.6147 and 21.633 and -16.264 and 22.2291
inhibition, Mean [1, 4]: 20.6552
inhibition, replicates of EXP1, EXP2, EXP3 [1, 4]: 28.445 and 6.394 and 37.2847 and 8.462 and 8.741 and 33.0478 and 30.776 and 11.643 and 21.1029
inhibition, Mean [1, 5]: 41.6476
inhibition, replicates of EXP1, EXP2, EXP3 [1, 5]: 30.652 and 40.964 and 60.1425 and 37.001 and 32.643 and 49.8155 and 34.125 and 37.671 and 51.8132
inhibition, Mean [1, 6]: 62.727
inhibition, replicates of EXP1, EXP2, EXP3 [1, 6]: 59.128 and 61.883 and 67.9669 and 57.955 and 65.648 and 69.7834 and 54.055 and 63.991 and 64.1355
inhibition, Mean [1, 7]: 85.133
inhibition, replicates of EXP1, EXP2, EXP3 [1, 7]: 83.359 and 83.395 and 85.1881 and 82.704 and 84.749 and 90.3418 and 80.717 and 88.643 and 87.1001
inhibition, Mean [1, 8]: 92.537
inhibition, replicates of EXP1, EXP2, EXP3 [1, 8]: 91.3 and 94.175 and 93.9868 and 93.148 and 93.985 and 90.8655 and 91.665 and 91.77 and 91.9373
Mean OD (OD 450nm) ([1]; hu IL-1b 0 pg/mL): 0.033
IL-1beta (mean, SD): mean readout (IL-6 release) ([1]; hu IL-1b 0 pg/mL): 0
Mean OD (OD 450nm) ([1]; hu IL-1b 40 pg/mL): 0.067
IL-1beta (mean, SD): mean readout (IL-6 release) ([1]; hu IL-1b 40 pg/mL): 0
Mean OD (OD 450nm) ([1]; hu IL-1b 80 pg/mL): 0.219
IL-1beta (mean, SD): mean readout (IL-6 release) ([1]; hu IL-1b 80 pg/mL): 866.8
Mean OD (OD 450nm) ([1]; hu IL-1b 120 pg/mL): 0.313
IL-1beta (mean, SD): mean readout (IL-6 release) ([1]; hu IL-1b 120 pg/mL): 1562
Mean OD (OD 450nm) ([1]; hu IL-1b 160 pg/mL): 0.45
IL-1beta (mean, SD): mean readout (IL-6 release) ([1]; hu IL-1b 160 pg/mL): 2574.8
Mean OD (OD 450nm) ([1]; hu IL-1b 200 pg/mL): 0.463
IL-1beta (mean, SD): mean readout (IL-6 release) ([1]; hu IL-1b 200 pg/mL): 2669.4
IC50 ([1]; Homo sapiens, Fibroblast, 6 h, human dermal fibroblasts, hIL-1β, 6 h, read-out: IL-6 release IC50): 7.9 ± 2 µM
IL-6 release IC50 ([1]; human dermal fibroblasts, hIL-1β, 6 h): single digit micromolar range
IC50 ([1]; source data, read-out: IL-6 IC50, individual experiments): 18.8 µM and 26.2 µM and 7.43 µM and 6.22 µM and 5.77 µM and 5.73 µM and 4.59 µM and 7.91 µM and 8.11 µM and 5.61 µM and 6.38 µM
